# Results reported in patent US20030119070A1, “Reagents for cell selection and methods of use” (Nexell Therapeutics, Inc., priority 2000, published 2003).
# Where “and” joins values, the source holds several entries; their conditions need not be identical. Equal values may be shown once. Ends that are not written are not given here.
# Tests used:
# [1] = tested on: anti-CD2 antibody B-E2; test: FACS competition assay of peptides for binding of anti-CD2 antibody B-E2 to T cells; conditions: 1 mM peptide, 1×10^6 MNC, 15 min room temperature; FIG. 3
# Experimental: Peptides having affinity for the CD2 monoclonal antibody B-E2 were isolated by phage display biopanning. Various peptides were tested as competitors for binding of T cells to the anti-CD2 antibody B-E2. A competition assay was performed using 1 mM of each peptide. The peptides were at 2×10^7 fold molar excess relative to the competitor CD2 antigen and at 6×10^6 fold molar excess relative to anti-CD2 antibody. Competition was measured using a FACS competition assay (see FIG. 3).
# For the competition assay, 0.5 ml of a 1 mM solution of various peptides was added to 1×10^6 peripheral blood mononuclear cells (MNC) followed by the addition of 100 μl of 0.02 μg/ml of CD2 antibody (B-E2) and incubated for 15 min at room temperature. Cells were washed once in lysing reagent (155 mM ammonium chloride, 10 mM potassium bicarbonate, and 0.1 mM EDTA) and twice in 2 ml of PAH (DPBS, 1% human serum albumin, 0.02% NaN3). 1 μl of goat F(ab′)2 fragment anti-mouse IgG (heavy+light)-phycoerythrin conjugated (GAM-PE; Immunotech; Miami Fla.) was added to each sample and incubated for 10 min at room temperature. Cells were washed twice in 2 ml of PAH. The final cell pellet was resuspended in 0.25 ml of 0.5% paraformaldehyde. The samples were analyzed by flow cytometry.
# [2] = tested on: Camma cells; test: Positive selection of Camma cells using Pan-O-5-PR34 conjugate and anti-CD34-coated Dynabeads; type: cell-based; conditions: PR34 peptide 5 mg/ml, 30 min room temperature; FIG. 5, N=1
# Experimental: To prepare antibody-coated beads, Dynabeads (Dynal) were washed with Dulbecco's phosphate buffered saline (D-PBS). Washed beads were coated with 50 μg anti-CD34 monoclonal antibody per 10^8 beads for 24 hours at 4° C. The beads were washed twice with Isolex buffer and incubated with 1% albumin in the Isolex buffer for 24 hours at 4° C.
# To synthesize the Pan-O-5-PR34 conjugate, the Pan-O-5 monoclonal antibody was incubated with N-(ε-maleimidocaproyloxy)succinimide ester for 30 min at room temperature to generate an antibody-linker complex. The antibody-linker complex was washed twice with D-PBS using an Amicon spin column (30 KD; Millipore Corp.; Bedford Mass.). The Pan-O-5-antibody-linker complex was incubated with PR34™ peptide for 30 min at room temperature. The Pan-O-5-linker-PR34 antibody complex was washed twice with D-PBS using an Amicon spin column. The concentration of the conjugate was determined by absorbance at 280 nm.
# Cells (18×10^6) were incubated with Pan-O-5-linker-PR34 antibody (5 μg/ml) for 15 min. The cell-antibody complex was washed twice with Isolex buffer and incubated with anti-CD34-coated Dynabeads (5 beads per cell) for 30 min at room temperature. The Dynabeads were isolated with a magnet, and unbound cells were removed. The bead-cell fraction was incubated with PR34™ peptide (5 mg/ml) for 30 min at room temperature. […]
# [3] = tested on: CD2+ T cells; test: Positive selection of CD2+ T cells using CD2-9069N, b-9069 and streptavidin beads; type: cell-based, human; conditions: release reagent 9069N 2.5 mg; for % T-cells released: 30 min./RT
# Description: To test the ability of a PR34+ peptide-conjugate to isolate a different cell type, the PR34+TM peptide was coupled to a CD2 antibody (B-E2; IgG2b isotype; Diaclone; Besancon, France) essentially as described in Example T. The PR34+TM peptide, also designated […], conjugated to the CD2 antibody was designated CD2-[…]. The biotinylated 9C5 antibody, also known as the 9069 antibody, was designated b-9069. Either mobilized or non-mobilized MNC preparations (see Example III) were used, with similar results. Cells were incubated with 1 μg or 5 μg of CD2-[…] conjugate for 15 min at room temperature (see Table 3). The cells were then incubated with 1 μg or 10 μg of biotinylated 9C5 antibody (b-9069) and streptavidin beads. Bound cells were subsequently incubated with either buffer or 2.5 mg of free PR34+TM peptide ([…]). Incubation conditions were essentially as described in Example II. The released cells were then quantitated and the purity determined. Purity and cell counts were assessed using an anti-CD3 antibody and the True Count flow cytometty quantitation method (Becton Dickenson; San Jose Calif.).
# [4] = tested on: CD8+ cells; test: Positive selection of CD8+ cells from a mononuclear cell preparation; type: cell-based, human; conditions: condition 2: biotinylated CD8 antibody capture; incubation with free PR34+ peptide
# Experimental: To test the ability of the CD8-PR34+ conjugate to isolate CD8+ cells from a population, mononuclear cells (MNCs), which contain CD8+ cells, were prepared. Mononuclear cells were collected from human donors. Mononuclear cells were collected from a G-CSF mobilized human donor using a CS-3000™ (Baxter) following the protocol of the manufacturer. The starting population of MNCs was 19.42% CD3+/8+. For each rosetting reaction, a quantity of MNCs containing 2×10^6 CD8+ cells was used. Biotinylated CD8 antibody (MT-415) was biotinylated essentially as described in Example I. The MNCs were incubated under three conditions. In condition 1, MNCs were incubated with streptavidin beads alone. In condition 2, MNCs were incubated with biotinylated CD8 antibody, followed by streptavidin beads. In condition 3, MNCs were incubated with CD8-PR34+ conjugate, followed by biotinylated 9C5 and streptavidin beads. After incubation with streptavidin beads, the free cells were removed, and the cells attached to streptavidin beads were incubated with free PR34+™ peptide. The released cells were counted, and the number of CD8+ cells was evaluated using flow cytometry. The CD8+ cells were quantitated using a combination of CD3 and […]. CD3 is a pan T cell marker, and CD3+ populations can be further subdivided into mutually exclusive CD4+ and CD8 positive populations. […]
# [5] = tested on: SUP-T1 cells; test: Flow cytometry of SUP-T1 cells sensitized with CD8-PR34+ conjugate, biotinylated 9C5 and streptavidin-PE, with or without free peptide; type: cell-based, human; conditions: SUP-T1 cells stained with conjugate, biotinylated 9C5, streptavidin-PE; free peptide 5.0 mg/ml, 15 min; FIG. 2
# Experimental: For flow cytometry experiments, SUP-T1 cells were used. SUP-T1 is a T-lymphoma-derived tumor cell line known to express typical T cell surface markers. The SUP-T1 cells were prepared for flow cytometry and sequentially sensitized with the CD8 antibody-PR34+ peptide (CD8-PR34+) conjugate, biotinylated 9C5, and phycoerythrin-labeled (PE-labeled) streptavidin. The SUP-T1 cells were incubated with either streptavidin-PE; sequentially with the CD8-PR34+ conjugate, biotinylated 9C5, followed by streptavidin-PE; or sequentially with CD8-PR34+ conjugate, biotinylated 9C5, streptavidin-PE, followed by a 15 min incubation with free PR34+™ peptide. The SUP-T1 cells were then analyzed by flow cytometry. All incubations were performed in a mixture of Dulbecco's phosphate buffered saline (GibcoBRL), 0.05% azide, 1.0% human serum albumin (PAH). All incubations were for 15 min at room temperature and each was followed by a wash with 1.0 ml PAH. The stained cells were resuspended in 0.25 ml PAH for flow cytometry. SUP-T1 cells (1×10^6) were stained with 1 μg of either the CD8-9069N or the CD34-biotin. The peptide was used at 5.0 mg/ml.
# [6] = tested on: CD2 T cells; test: T cell selection using CD2-PR34 conjugate and capture by direct binding of CD34 antibody to Dynabeads; type: cell-based, human; conditions: for % Purity / % Yield: release agent PR34+ 2.5 mg
# Experimental: The CD2 antibody B-E2 was conjugated to PR34™ peptide essentially as described in Example IV. MNCs were incubated essentially as described in Example IV using CD2-PR34 conjugate. The cells were then incubated with the CD34 antibody 9069 coated on M-450 Dynabeads (Dynal). The CD34 antibody coated beads were prepared by absorbing various amounts of anti-CD34 antibody on the bead surface. The beads were prebound with 0, 1, 5, 20, or 50 μg of antibody per 108 beads. As a control, an aliquot of cells was incubated with streptavidin coated Dynabeads.
# [7] = tested on: anti-CD2 antibody B-E2; test: FACS release assay of cells bound to anti-CD2 antibody using peptides; type: binding; conditions: 1 mM or 5 mM peptide, 30 min room temperature, in some cases 1 mM DTT; FIG. 4
# Experimental: Several of the peptides were further tested for release activity. Briefly, the FACS release assay was performed by incubating 1×10^6 MNC with 100 μl of 0.02 μg/ml of CD2 antibody for 15 min at room temperature. Cells were washed once with 2 ml of lysing reagent and twice with 2 ml of PAH solution. 0.5 ml of a 1 mM or 5 mM peptide stock was added to the cell pellet and incubated at room temperature for 30 min. Cells were washed twice in 2 ml of PAH. 1 μl of GAM-PE was added to each sample and incubated for 10 min at room temperature. Cells were washed twice in 2 ml of PAH. The final cell pellet was resuspended in 0.25 ml of 0.5% paraformaldehyde. The samples were analyzed by flow cytometry.
# In the release assay, either 1 mM or 5 mM peptide (1 mM peptide except where indicated to be 5 mM in FIG. 4). In some cases, the release assay was performed in the presence of 1 mM dithiothreitol (DTT). The assay was performed with two different batches of donor cells (second batch of donor cells designated with “*” in FIG. 4).
# [8] = target: biotinylated 9C5 antibody (anti-human CD34 monoclonal antibody); test: cell-based or functional assay
# [9] = SA: streptavidin coated Dynabead control
molecule,measurement,setting,value
ACKQF,competition for binding of the anti-CD2 antibody B-E2 to cells,[1],compete for binding
ACKQFACKQF,competition for binding of the anti-CD2 antibody B-E2 to cells,[1],compete for binding
ACKQFDFC,competition for binding of the anti-CD2 antibody B-E2 to cells,[1],compete for binding
ACKQFDFCNDH,competition for binding of the anti-CD2 antibody B-E2 to cells,[1],compete for binding
ACKQFDFCNDHWSK,competition for binding of the anti-CD2 antibody B-E2 to cells,[1],compete for binding
ACKQFDFCNDHWSKSQH,competition for binding of the anti-CD2 antibody B-E2 to cells,[1],compete for binding
ACKQFN,competition for binding of the anti-CD2 antibody B-E2 to cells,[1],compete for binding
ACKQFNNDV,competition for binding of the anti-CD2 antibody B-E2 to cells,[1],compete for binding
ACKQFNNDVTCN,competition for binding of the anti-CD2 antibody B-E2 to cells,[1],compete for binding
ACKQFNNDVTCNAAEGDD,competition for binding of the anti-CD2 antibody B-E2 to cells,[1],compete for binding
ACKQFNNDVTCNKRH,competition for binding of the anti-CD2 antibody B-E2 to cells,[1],compete for binding
ACKQLHSVSGCR,competition for binding of the anti-CD2 antibody B-E2 to cells,[1],compete for binding
ACKRPP,competition for binding of the anti-CD2 antibody B-E2 to cells,[1],compete for binding
ACKRPPVSLTCH,competition for binding of the anti-CD2 antibody B-E2 to cells,[1],compete for binding
ASKQF,competition for binding of the anti-CD2 antibody B-E2 to cells,[1],compete for binding
"Ac-QQGWFPKD [PR34+™ peptide, peptide capable of displacing the anti-CD34 antibody 9C5 (9069); used free as release agent]",cells released,[2],Greater than 75%
same,% Purity (CD3+),"[3]; CD2-9069N 1 μg, b-9069 1 μg",89%
same,% T-cells released,"[3]; CD2-9069N 1 μg, b-9069 1 μg",71%
same,% Purity (CD3+),"[3]; CD2-9069N 1 μg, b-9069 10 μg",87% and 74%
same,% T-cells released,"[3]; CD2-9069N 1 μg, b-9069 10 μg",87% and 65%
same,% Purity (CD3+),"[3]; CD2-9069N 5 μg, b-9069 1 μg",88% and 81%
same,% T-cells released,"[3]; CD2-9069N 5 μg, b-9069 1 μg",61% and 56%
same,% Purity (CD3+),"[3]; CD2-9069N 5 μg, b-9069 10 μg",70%
same,% T-cells released,"[3]; CD2-9069N 5 μg, b-9069 10 μg",50%
same,% Yield,[4],less than 3%
same,fluorescent signal after addition of free peptide,[5],eliminated the fluorescent signal
same,% Purity,[6]; 1 μg antibody per 10^8 beads,92.4%
same,% Yield,[6]; 1 μg antibody per 10^8 beads,55.9%
same,% Purity,[6]; 5 μg antibody per 10^8 beads,91.3%
same,% Yield,[6]; 5 μg antibody per 10^8 beads,68.9%
same,% Purity,[6]; 20 μg antibody per 10^8 beads,91.8%
same,% Yield,[6]; 20 μg antibody per 10^8 beads,47.4%
same,% Purity,[6]; 50 μg antibody per 10^8 beads,91.4%
same,% Yield,[6]; 50 μg antibody per 10^8 beads,57.5%
same,% Purity,[6]; [9],94.5%
same,% Yield,[6]; [9],81.5%
same,purity of the cells released by free peptide,"[6]; summary, antibody-coated beads",greater than 90%
same,yield of CD2 cells,"[6]; summary, antibody-coated beads incubated with free PR34+ peptide",≥ 50%
KCHPNMSLKECH,competition for binding of the anti-CD2 antibody B-E2 to cells,[1],compete for binding
RCRRPATTPACR,competition for binding of the anti-CD2 antibody B-E2 to cells,[1],compete for binding
same,release activity (release of T cells bound to anti-CD2 antibody),[7],highest release activity
RCRRPATTPACRACKQF,competition for binding of the anti-CD2 antibody B-E2 to cells,[1],compete for binding
Ac-QQGWFPKD [free PR34+ peptide Ac-QQGWFPKD (SEQ ID NO:2)],% SUP-T1 Yield after release with free peptide (tube 2),[8],43%
same,% SUP-T1 Yield after release with free peptide (tube 3),[8],31%
same,"% T-cells released by 9069N 2.5 mg (CD2-9069N 1 µg, b-9069 1 µg)",[8],71%
same,"% T-cells released by 9069N 2.5 mg (CD2-9069N 1 µg, b-9069 10 µg)",[8],87% and 65%
same,"% T-cells released by 9069N 2.5 mg (CD2-9069N 5 µg, b-9069 1 µg)",[8],61% and 56%
same,"% T-cells released by 9069N 2.5 mg (CD2-9069N 5 µg, b-9069 10 µg)",[8],50%
same,% Yield after release with PR34+ 2.5 mg (streptavidin coated Dynabead control),[8],81.5%
same,% Yield of CD8+ cells after release with free peptide (condition 3),[8],16%
